Experimental data as given in patent US20110160228A1, “DIHYDRO-ISO-CA-4 AND ANALOGUES: POTENT CYTOTOXICS, INHIBITORS OF TUBULIN POLYMERIZATION” (CENTRE NATIONAL DE LA RECHERCHE SCIENRIFIQUE (CNRS), priority 2008, published 2011).
Read-outs that look alike come from different tables or passages of the source.

Columns and labels:
tubulin = target: T1, tubulin (Sus scrofa, UniProt P02550+P02554); experiment: Inhibition of tubulin polymerization followed by turbidimetry; type: biochemical, porcine; settings: for IC50: tubulin from porcine brain, turbidimetry at 350 nm; for Inhibiting activity of tubulin polymerisation, in words: compared with CA-4 or between the enantiomers
T1 construct: from porcine brain in which it forms 20 to 25% of soluble proteins; from tissue; host or cells: porcine brain
Description: These tests were conducted on tubulin purified using the Shelanski method (Shelanski, M. C.; Gaskin, F.; Cantor, C. R. Proc. Natl. Acad. Sci. USA, 1973, 70, 765-768) from porcine brain in which it forms 20 to 25% of soluble proteins. The purification method is based on temperature-dependent assembly-disassembly cycles. Polymerisation of tubulin was followed by turbidimetry using the Gaskin method (Gaskin, F.; Cantor, C. R.; Shelanski, M. L.; J. Bio. Mol., 1974, 89, 737) at a wavelength of 350 nm. The different samples were dissolved in DMSO and incubated 10 minutes at 37° C. then 5 minutes at 0° C.
The compound CA-4 and DMSO were used as reference.

EAhy926 = experiment: Formation of vascular tubes on Matrigel (anti-vascular activity); type: cell-based, human; settings: treatment time of 3 hours at 0.5 μM or 1 μM
Description: The Matrigel™ is deposited in 96-well culture plates to the proportion of 70 μl/well and left to incubate at 37° C. for 45 minutes to allow polymerization thereof. […] After 3 hours of incubation at 37° C., the cells were observed and photographed using an optical microscope of TE2000 type (Nikon, France) equipped with a camera (FIG. 3).
In parallel, 15,000 EAhy926 cells in suspension in 150 μl of culture medium were seeded in each of the wells containing Matrigel™. […] The effect of the product was observed and photographed after 3 hours of incubation using an optical microscope (FIG. 4).

HCT116 = experiment: In vitro cytotoxicity, cell viability with CellTiter-Blue; type: cell-based; settings: Homo sapiens, HCT-116, 72 h
Description: (§1) The biological activity of the compounds of the invention was studied in vitro on 7 human cancer cell lines of different tissular origin (HCT116: coloreactal carcinoma; K562: chronic myeloid leukaemia; B16-F10: melanoma; U87: glioblastoma; H1299: non-small cell lung cancer and MDA-MB 231 and MDA-MB 435: breast cancer). The cells chosen for this study were incubated at 37° C. in the presence of one of the compounds added to the culture medium at different concentrations. All the experiments conducted allowed determination of the extent of toxicity of the tested compound, effect thereof on the cell cycle process and capacity thereof to induce cell death by apoptosis.
(§2) The cancer cell lines were obtained from the American Type Culture Collection (Rockville, Md., USA) and were cultured following the supplier's recommendations.
The cells H1299, U87, MDA-MB231, MDA-MB435 and B16F10 were cultured in Dulbecco Minimal Essential Medium (DMEM) containing 4.5 g/l glucose, supplemented with 10% foetal calf serum and 1% glutamine. The K562 and HCT116 cells were cultured in RPMI 1640 medium containing 10% foetal calf serum and 1% glutamine. All the cell lines were held in culture at 37° C. in a humid atmosphere containing 5% CO2. Cell viability was evaluated using the reagent CellTiter-Blue™ (Promega, Wis., USA) paying heed to the manufacturer's instructions. The cells were seeded in 96-well culture plates to the proportion of 5000 cells per well in 50 μl culture medium. […] All the compounds were tested in triplicate for each defined concentration, and each experiment was repeated 3 times. After 72 hours of incubation, 20 μl resazurin were added to each well. After 2 hours of incubation, the emitted fluorescence was measured at 590 nm after excitation at 560 nm using a fluorescence reader of Victor type (Perkin-Elmer, USA).

MDA-MB 231 = experiment: as above; type: cell-based; settings: Homo sapiens, read-out: IC50 for different cell lines, M231
Description: as §1, §2
The cells H1299, U87, MDA-MB231, MDA-MB435 and B16F10 were cultured in Dulbecco Minimal Essential Medium (DMEM) containing 4.5 g/l glucose, supplemented with 10% foetal calf serum and 1% glutamine. […] Cell viability was evaluated using the reagent CellTiter-Blue™ (Promega, Wis., USA) paying heed to the manufacturer's instructions. […] After 2 hours of incubation, the emitted fluorescence was measured at 590 nm after excitation at 560 nm using a fluorescence reader of Victor type (Perkin-Elmer, USA).

[1] = tested on: mouse P-388 leukemia cells; settings: cited from earlier work
HCT-15 cells = settings: read-out: IC50, cytotoxic effect; cited from earlier work
[2] = tested on: mouse colon adenocarcinoma 26; settings: cited from earlier work
[3] = cited from earlier work
[4] = 72 hours of incubation, read-out: IC50 for different cell lines, HCT116

T1 sequence (P02554 whole entry): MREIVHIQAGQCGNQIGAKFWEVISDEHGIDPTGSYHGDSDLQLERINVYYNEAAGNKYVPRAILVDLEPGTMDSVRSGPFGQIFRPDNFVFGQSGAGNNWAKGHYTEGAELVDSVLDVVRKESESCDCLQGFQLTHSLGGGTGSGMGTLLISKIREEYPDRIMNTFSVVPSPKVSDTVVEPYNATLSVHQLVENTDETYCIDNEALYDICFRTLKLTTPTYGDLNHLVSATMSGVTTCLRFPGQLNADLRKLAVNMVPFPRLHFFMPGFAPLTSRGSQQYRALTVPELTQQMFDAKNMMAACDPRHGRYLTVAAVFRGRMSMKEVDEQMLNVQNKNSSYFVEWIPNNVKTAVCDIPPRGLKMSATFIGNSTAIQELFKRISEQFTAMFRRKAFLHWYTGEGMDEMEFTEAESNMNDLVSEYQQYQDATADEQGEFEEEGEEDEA
T1 sequence (P02550 whole entry): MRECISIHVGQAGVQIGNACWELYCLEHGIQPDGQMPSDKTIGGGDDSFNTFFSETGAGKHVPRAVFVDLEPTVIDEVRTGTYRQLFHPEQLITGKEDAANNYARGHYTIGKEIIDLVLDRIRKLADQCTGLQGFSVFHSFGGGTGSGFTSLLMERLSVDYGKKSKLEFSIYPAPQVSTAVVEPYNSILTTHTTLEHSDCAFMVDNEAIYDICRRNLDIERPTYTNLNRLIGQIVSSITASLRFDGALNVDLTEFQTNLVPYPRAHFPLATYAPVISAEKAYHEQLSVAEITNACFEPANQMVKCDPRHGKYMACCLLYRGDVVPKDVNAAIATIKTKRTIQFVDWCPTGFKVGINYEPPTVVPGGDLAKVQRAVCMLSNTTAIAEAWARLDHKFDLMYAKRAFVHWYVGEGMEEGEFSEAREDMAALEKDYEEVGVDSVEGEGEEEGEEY

## COc1cc(OC)cc(C(C)c2ccc(OC)c(N)c2)c1 (centres unmarked) [Compound I-38]
tubulin
  IC50: 11000 nM

## COc1ccc(C(C)c2cc(OC)c(OC)c(OC)c2)cc1OP(=O)(O)O (centres unmarked) [Compound I-16]
EAhy926
  Number of vascular tubes: major decrease in the number of vascular tubes
HCT116; read-out: IC50 for different cell lines, HCT116, 72 hours of incubation, in DMSO
  IC50: 90 nM
HCT116; read-out: IC50 for different cell lines, HCT116, 72 hours of incubation, in water
  IC50: 100 nM
MDA-MB 231; MDA-MB-231, 72 h
  IC50: 50 nM

## COc1ccc(C(C)c2cc(OC)c(OC)c(OC)c2)cc1O (single isomer, unassigned) [Compound I-1a]
tubulin
  Inhibiting activity of tubulin polymerisation, in words: the same capacity to inhibit tubulin polymerisation
  IC50: 5000 to 6000 nM

## COc1ccc(C(C)c2cc(OC)c(OC)c(OC)c2)cc1O (centres unmarked) [Compound I-1]
tubulin
  IC50: 3200 nM

## COc1ccc(C(c2cc(OC)c(OC)c(OC)c2)C(F)F)cc1O (centres unmarked) [Compound I-20]
HCT116; [4]
  IC50: 30 nM

## COc1ccc(C(CC#N)c2cc(OC)c(OC)c(OC)c2)cc1O (centres unmarked) [Compound I-19]
HCT116; [4]
  IC50: 80 nM

## COc1ccc(C(C)c2cc(OC)c(OC)c(OC)c2)cc1O (single isomer, unassigned) [Compound I-1b]
tubulin
  Inhibiting activity of tubulin polymerisation, in words: the same capacity to inhibit tubulin polymerisation
  IC50: 6700 to 8000 nM

## COc1ccc(C(C)c2cc(OC)c(OC)c(OC)c2)cc1OC(=O)CN(C)C (centres unmarked) [Compound I-14]
HCT116; 72 hours of incubation, in DMSO, read-out: IC50 for different cell lines, HCT116
  IC50: 50 nM
HCT116; 72 hours of incubation, in water, read-out: IC50 for different cell lines, HCT116
  IC50: 90 nM
MDA-MB 231; MDA-MB-231, 72 hours of incubation, in DMSO
  IC50: 50 nM

## COc1ccc(C(C)c2cc(OC)c(OC)c(OC)c2)cc1F (centres unmarked) [Compound I-9]
tubulin
  IC50: 6000 nM
HCT116; [4]
  IC50: 85 nM

## COc1cc(OC)cc(C(C)c2ccc(OC)c(O)c2)c1 (centres unmarked) [Compound I-18]
tubulin
  IC50: 11000 nM

## COc1ccc(C(C)c2cc(OC)c(OC)c(OC)c2)cc1N (centres unmarked) [Compound I-21]
HCT116; read-out: IC50 for different cell lines, HCT116, 72 hours of incubation
  IC50: 60 nM

## COc1ccc(C=Cc2cc(OC)c(OC)c(OC)c2)cc1O (single isomer, unassigned) [E isomer of CA-4]
[1]
  Cytotoxic activity, times lower than the natural Z isomer: approximately 60 times

## COc1ccc(/C=C\c2cc(OC)c(OC)c(OC)c2)cc1O [CA-4, combretastatin A-4]
HCT-15 cells
  IC50: 0.9 nM
[2]
  Antitumor activity in vivo: no antitumor activity is observed
[3]
  Solubility in water: low solubility in water
